Laboratory results from ChEMBL document CHEMBL1201862, “PubChem BioAssay data set” (2004).
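Results reflect a 48-hour exposure of cells in 96-well plates to compound at five concentrations. GI50: concentration for 50% inhibition of growth.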 Calls of active or inactive are those of the source. Cut-off read from the data, not from the text of the source: active = GI50 up to about 1.1 µM and inactive = higher.

Tests used:
Test in all cases: NCI tumour cell line growth inhibition, 48 h
NCI-H226 = tested on: NCI-H226
RXF 393 = tested on: RXF 393
HL-60 = tested on: HL-60
SF-295 = tested on: SF-295
HOP-62 = tested on: HOP-62
OVCAR-3 = tested on: OVCAR-3
EKVX = tested on: EKVX
MOLT-4 = tested on: MOLT-4
HCC 2998 = tested on: HCC 2998
SNB-19 = tested on: SNB-19
HT-29 = tested on: HT-29
HCT-116 = tested on: HCT-116
ACHN = tested on: ACHN
Malme-3M = tested on: Malme-3M
OVCAR-5 = tested on: OVCAR-5
HOP-92 = tested on: HOP-92
TK-10 = tested on: TK-10
SR = tested on: SR

Measured: GI50

CC(C)CCC[C@@H](C)C1CCC2[C@@H]3CC=C4C[C@@H](OC(=O)CCC(=O)NCC[N+](C)(C)CCCS(=O)(=O)[O-])CC[C@]4(C)C3CC[C@@]21C (stereo not given in full)
inactive: NCI-H226 27.4 µM | RXF 393 11.3 µM | HL-60 18.8 µM | SF-295 17 µM | HOP-62 17.6 µM | OVCAR-3 17.9 µM | EKVX 29.2 µM | MOLT-4 19.1 µM | HCC 2998 20.6 µM | SNB-19 24.3 µM | HT-29 26.7 µM | HCT-116 23.1 µM | ACHN 23.9 µM | Malme-3M 22.5 µM

Cc1c(C(=O)CSc2nc3ccccc3c(=O)n2-c2ccccc2)c(=O)n(-c2ccccc2)n1C
inactive: NCI-H226 23.3 µM | HL-60 > 100 µM | SF-295 28.8 µM | HOP-62 31.4 µM | OVCAR-3 27.6 µM | OVCAR-5 > 100 µM | MOLT-4 > 100 µM | HOP-92 24.3 µM | HCC 2998 > 100 µM | TK-10 41.9 µM | SNB-19 44.4 µM | HT-29 > 100 µM | HCT-116 68.2 µM | ACHN 35.2 µM | Malme-3M 60.5 µM | SR 82.2 µM

NNC(=O)CNC(=O)c1ccc(Cl)cc1Cl
inactive: NCI-H226 > 100 µM | HL-60 > 100 µM | SF-295 > 100 µM | HOP-62 > 100 µM | OVCAR-3 > 100 µM | EKVX > 100 µM | OVCAR-5 > 100 µM | MOLT-4 > 100 µM | HOP-92 > 100 µM | HCC 2998 > 100 µM | TK-10 > 100 µM | SNB-19 > 100 µM | HT-29 80.4 µM | HCT-116 39.4 µM | ACHN > 100 µM | Malme-3M > 100 µM

COC1(OC)CCC2C1C1CCC(OC)(OC)C21 (stereo not given)
inactive: NCI-H226 > 50 µM | RXF 393 > 50 µM | HL-60 > 50 µM | SF-295 > 50 µM | HOP-62 > 50 µM | OVCAR-3 > 50 µM | EKVX > 50 µM | OVCAR-5 > 50 µM | MOLT-4 > 50 µM | HOP-92 > 50 µM | HCC 2998 > 50 µM | SNB-19 > 50 µM | HT-29 > 50 µM | HCT-116 > 50 µM | ACHN > 50 µM | Malme-3M > 50 µM

CCc1nnc(S)n1/N=C/c1ccc(-c2ccc([N+](=O)[O-])cc2)o1
inactive: NCI-H226 > 100 µM | HL-60 > 100 µM | SF-295 > 100 µM | HOP-62 > 100 µM | OVCAR-3 > 100 µM | OVCAR-5 > 100 µM | MOLT-4 > 100 µM | HOP-92 > 100 µM | HCC 2998 > 100 µM | TK-10 > 100 µM | SNB-19 > 100 µM | HT-29 > 100 µM | HCT-116 > 100 µM | ACHN > 100 µM | Malme-3M > 100 µM | SR > 100 µM

COC(=O)C1=C(C(=O)OC)C2(C)Nc3ccccc3C2=C(c2ccccc2)C1 (stereo not given)
inactive: RXF 393 21.3 µM | HL-60 19.9 µM | SF-295 23.2 µM | HOP-62 22.4 µM | OVCAR-3 17.9 µM | EKVX 28.8 µM | OVCAR-5 24.5 µM | MOLT-4 11.9 µM | HOP-92 13.3 µM | HCC 2998 26.2 µM | TK-10 26.6 µM | SNB-19 24 µM | HT-29 27.7 µM | HCT-116 19 µM | ACHN 22.1 µM | Malme-3M 18.4 µM

O=c1cc(-c2ccccc2)oc2cc(OCC(O)COc3ccc4c(=O)cc(-c5ccccc5)oc4c3)ccc12
inactive: HL-60 23 µM | SF-295 38.4 µM | HOP-62 8.43 µM | OVCAR-3 32.5 µM | EKVX > 100 µM | OVCAR-5 > 100 µM | MOLT-4 40.2 µM | HOP-92 26.5 µM | TK-10 42.4 µM | SNB-19 20.2 µM | HT-29 > 100 µM | HCT-116 42.5 µM | Malme-3M > 100 µM

COC12CCC(C(C(=O)c3ccccc3)=C1C(=O)c1ccccc1)C(O)C2 (stereo not given)
inactive: NCI-H226 > 100 µM | HL-60 > 100 µM | SF-295 > 100 µM | HOP-62 > 100 µM | OVCAR-3 > 100 µM | EKVX > 100 µM | MOLT-4 > 100 µM | HOP-92 > 100 µM | HCC 2998 > 100 µM | TK-10 > 100 µM | SNB-19 > 100 µM | HT-29 > 100 µM | HCT-116 > 100 µM | Malme-3M > 100 µM | SR > 100 µM

O=C(OC1CC(n2cc(F)c(=O)[nH]c2=O)OC1CSC(=O)c1ccccc1)c1ccccc1 (stereo not given)
inactive: NCI-H226 31.3 µM | RXF 393 27.3 µM | HL-60 23.3 µM | SF-295 33.7 µM | HOP-62 51.3 µM | OVCAR-3 23.4 µM | EKVX 33.3 µM | OVCAR-5 61.8 µM | MOLT-4 25.7 µM | HOP-92 22.9 µM | HCC 2998 4.85 µM | TK-10 > 100 µM | SNB-19 59.7 µM | HT-29 17.8 µM | HCT-116 34.8 µM | ACHN 34.6 µM | Malme-3M 28.7 µM

CCCCN(CCCC)C(=O)C(=O)CC(=O)c1ccc(Br)cc1
inactive: NCI-H226 > 100 µM | HL-60 > 100 µM | SF-295 > 100 µM | HOP-62 > 100 µM | OVCAR-3 > 100 µM | EKVX > 100 µM | OVCAR-5 > 100 µM | MOLT-4 > 100 µM | HOP-92 > 100 µM | HCC 2998 > 100 µM | TK-10 > 100 µM | SNB-19 > 100 µM | HT-29 > 100 µM | HCT-116 > 100 µM | ACHN > 100 µM | Malme-3M > 100 µM

N#C/C(=C\c1cc(O)cc(O)c1)C(N)=O
inactive: NCI-H226 > 100 µM | RXF 393 > 100 µM | HL-60 > 10 µM | SF-295 > 100 µM | HOP-62 > 100 µM | OVCAR-3 > 100 µM | EKVX > 100 µM | OVCAR-5 > 100 µM | MOLT-4 > 100 µM | HOP-92 > 100 µM | HCC 2998 > 100 µM | TK-10 > 100 µM | SNB-19 > 100 µM | HT-29 > 100 µM | HCT-116 > 100 µM | ACHN > 100 µM | Malme-3M > 100 µM

C[N+](C)(C)CCC(=O)CC[N+](C)(C)C
inactive: RXF 393 21.3 µM | HL-60 4.09 µM | SF-295 18.7 µM | HOP-62 > 100 µM | OVCAR-3 18.6 µM | EKVX 55.3 µM | MOLT-4 4.14 µM | HCC 2998 16.2 µM | TK-10 17 µM | SNB-19 > 100 µM | HT-29 13.5 µM | HCT-116 18.4 µM | ACHN 17 µM | Malme-3M 19.7 µM

CC12CCC(=O)N1c1cc([N+](=O)[O-])ccc1N2 (stereo not given)
inactive: NCI-H226 > 100 µM | RXF 393 > 100 µM | HL-60 > 100 µM | SF-295 > 100 µM | HOP-62 > 100 µM | OVCAR-3 > 100 µM | EKVX > 100 µM | MOLT-4 > 100 µM | SNB-19 > 100 µM | HT-29 > 100 µM | HCT-116 > 100 µM | ACHN > 100 µM | Malme-3M > 100 µM | SR 76 µM
